Measured values from PMC3893781, “Triterpenoid Saponins Isolated from Platycodon grandiflorum Inhibit Hepatitis C Virus Replication” (Evidence-based Complementary and Alternative Medicine : eCAM, 2013).
pIC50: −log10 of the molar value. Converted amounts (≈) assume the structure as drawn. Read-outs that look alike come from different tables or passages of the source.

How the values were obtained:
[1] = tested on: HCV replicon cells (genotype 1b); experiment: In vitro combination studies (CalcuSyn combination index); assay type: cell-based, HCV genotype 1b; conditions: in combination with PGSM; for Combination Index at EC50 / Combination Index at EC75 / Combination Index at EC90: 72 h, CalcuSyn; for Effect of combination: CI < 1 synergistic
Protocol: HCV Replicon cells were treated with various concentrations of inhibitors in twofold serial dilutions at a final dimethyl sulfoxide concentration of 1% including titrations of each of the compounds alone as reference controls. […] At three days after treatments, intracellular HCV RNA levels were determined by qRT-PCR. For the Loewe additive model, the experimental data were analyzed by using CalcuSyn (Biosoft, Ferguson, Mo.), a computer program based on the method of Chou and Talalay. A combination index (CI) value for each experimental combination was calculated by a quantitative measure of the degree of drug interaction in terms of additive effect (CI = 1), synergism (CI < 1), or antagonism (CI > 1) for a given endpoint of the effect measurement.

[2] = tested on: JFH1 viruses (HCV genotype 2a) in Huh7 cells; experiment: Anti-HCV assay in HCVcc-infected cells (qRT-PCR); assay type: cell-based; conditions: Hepatitis C virus, Huh-7, 48 h, read-out: Inhibition of HCV RNA replication (EC50) JHF-1 (genotype 2a)
Protocol: Infectious JFH1 viruses (HCV genotype 2a) were generated as described previously. Huh7 cells were seeded in 24-well plates at a density of 5 × 10^4 cells per well. At 24 h after plating, cells were infected with JFH1 viruses for 2 h. After incubation, the supernatants were replaced with fresh medium. Increasing concentrations of PGMS and its triterpenoid saponins were added in a medium containing 2% DMSO, and cells were incubated at 37°C. At 48 h after infection, total RNAs were extracted and the HCV RNA levels were quantified by qRT-PCR assay. Anti-HCV activity was determined by HCV RNA levels in compound-treated cells as compared to mock-treated cells.

[3] = Cell viability assay (MTT); assay type: cell-based; conditions: human, Huh7 cells, read-out: Cytotoxicity (CC50)
Protocol: Cell viability was determined by the colorimetric 3-(4,5-dimethylthiazol-2-yl)-2,5-diphenyltetrazolium bromide (MTT) reagent (Promega Corporation) according to the manufacturer's instructions. The absorbance was detected at 570 nm using a Bio-Tek plate reader (Bio-Tek instrument, Weymouth, MA).

[4] = tested on: HCV subgenomic replicon (genotype 1b) in Huh7 cells; experiment: Anti-HCV assay in HCV replicon cells (qRT-PCR); assay type: cell-based, HCV genotype 1b; conditions: Hepatitis C virus, Huh-7, 72 h, read-out: Inhibition of HCV RNA replication (EC50) CON1 (genotype 1b)
Protocol: Huh7 cells harboring HCV subgenomic replicon (genotype 1b) were maintained in the presence of 0.25 mg/mL G418 (Invitrogen, Carlsbad, CA). HCV replicon cells were seeded at a density of 1 × 10^4 cells/well in a 96-well plate and incubated at 37°C and 5% CO2. Following 24 h incubation, the culture medium was replaced with a medium containing serially diluted test compounds in the presence of 2% FBS and 1% DMSO. After cells were treated for 72 h with PGMS and triterpenoid saponins, total RNAs were extracted using a CellAmp Direct RNA Prep Kit (Korea Biomedical, Seoul, Korea). The HCV RNA levels were quantified by a quantitative real-time polymerase chain reaction (qRT-PCR) assay using IQ5 real-time PCR detection system (Bio-Rad, Hercules, CA, USA) with HCV-specific primers (5′-GACACTCCACCATAGATCACTC-3′ and 5′-CCC AAC ACT ACT CGG CTA G-3′) and probe (5′-FAM-CCCAAATCTCCAGGCATTGAGCGG-3′ BHQ-1). Results were normalized to glyceraldehyde-3-phosphate dehydrogenase gene (GAPDH). Anti-HCV activity was determined by HCV RNA levels in compound-treated cells as compared to mock-treated cells.

[5] = biological target: T1, HCV NS5B polymerase (NS5BCΔ21) (Hepatitis C virus genotype 1b, UniProt Q9WMX2); experiment: RdRp assay with recombinant HCV NS5B polymerase; assay type: biochemical, HCV genotype 1b
T1 construct: HCV NS5B polymerase from HCV genotype 1b carrying an N-terminal GST-tag and C-terminal 21-amino acid truncation (NS5BCΔ21); made in house; host or cells: Escherichia coli
Protocol: Recombinant HCV NS5B polymerase from HCV genotype 1b carrying an N-terminal GST-tag and C-terminal 21-amino acid truncation (NS5BCΔ21) was expressed in Escherichia coli and purified as previously described with some modifications. The colorimetric reverse transcriptase assay kit (Roche Applied Science) was applied to perform RdRp assay. The inhibition of HCV RdRp activity was determined by the amount of double-stranded RNA synthesized by the recombinant NS5BΔC21 in the presence of various test compounds using HCV 3′-UTR as a template.

HCV NS3/4A protease = biological target: T2, HCV NS3/4A protease (Hepatitis C virus genotype 1b, UniProt Q9WMX2); experiment: biochemical; assay type: biochemical; conditions: FRET peptide substrate; read-out: HCV enzyme (IC50) HCV NS3/4A
T2 construct: HCV-NS3/4A protease purified from E. coli; host or cells: E. coli
Protocol: The NS3/4A serine protease assay was performed using a HCV protease assay kit (SensoLyte, AnaSpec, Fremont, CA) according to the manufacturer's instructions. Briefly, HCV-NS3/4A protease purified from E. coli was mixed with the test compound in the assay buffer. After 15 min incubation at room temperature, EDANS/DABCYL-based fluorescence resonance energy transfer (FRET) peptide substrate solution was added and mixed. The FRET substrate was cleaved specifically by HCV NS3/4A protease, thereby liberating the C-terminal peptide-fluorophore fragment from the proximity quenching effect of the dark quencher, resulting in increase of fluorescence. The fluorescence intensity was measured immediately and continuously at excitation/emission at 340 nm and 490 nm.

[6] = tested on: Huh7 cells harboring HCV subgenomic replicon (genotype 1b); experiment: Colony forming assay; assay type: cell-based, HCV genotype 1b; conditions: 5 U/mL of IFN-α alone, three weeks, G418
Description: G418 was included in the media to provide selective pressure on HCV replicon cells. After three weeks of treatment, surviving cells were stained with crystal violet [23].

[7] = tested on: HCV subgenomic replicon cells (genotype 1b); experiment: Anti-HCV assay for 14 days; assay type: cell-based, HCV genotype 1b
Protocol: HCV replicon cells were plated at 2 × 10^5 cells per well in a 6-well plate. Each compound was serially diluted in DMEM containing 10% FBS and 0.2% DMSO as reported previously. Culture media were replaced with fresh medium and compounds every 3 days. Cells were harvested at 3, 6, 9, and 14 days and intracellular HCV RNA levels were analyzed by qRT-PCR. The relative copy number of HCV RNA per cell was calculated by comparing RNAs in cells treated with each compound with those RNAs in cells treated with 0.2% DMSO.

[8] = read-out: HCV enzyme (IC50) HCV NS5B RdRp activity, recombinant NS5B, HCV 3′-UTR template

Row | Compound | Combination Index at EC50 [1] | Combination Index at EC75 [1] | Combination Index at EC90 [1] | Effect of combination [1] | EC50 [2] | CC50 [3] | EC50 [4] | pIC50 [5, 8] | pIC50 (HCV NS3/4A protease) | pIC50 [5] | Colony formation of HCV replicons [6] | Reduction of HCV RNA levels ([7]; IFN-α 10 U/mL) | Reduction of HCV RNA levels ([7]; IFN-α 50 U/mL) | Reduction of HCV RNA levels ([7]; IFN-α 100 U/mL)
1 | COC(=O)N[C@H](C(=O)N1CCC[C@H]1c1nc(-c2ccc(-c3ccc(-c4c[nH]c([C@@H]5CCCN5C(=O)[C@@H](NC(=O)OC)C(C)C)n4)cc3)cc2)c[nH]1)C(C)C [BMS790052, Daclatasvir] | 0.41 | 0.42 | 0.44 | Synergistic | – | – | – | – | – | – | – | – | – | –
2 | CC1OC(OC2C(OC(=O)C34CCC(C)(C)CC3C3=CCC5C6(C)CC(O)C(OC7OC(CO)C(O)C(OC8OC(CO)C(O)C(O)C8O)C7O)C(CO)(CO)C6CCC5(C)C3(C)CC4O)OC(CO)C2O)C(O)C(O)C1OC1OCC(O)C(O)C1O (stereo not drawn) [Deapioplatycodin D2, deapioplatycodin D2] | – | – | – | – | 8 µg/mL (≈ 6.37 µM) | 100 µg/mL (≈ 79.7 µM) | 0.89 µg/mL (≈ 0.709 µM) | 5.10 | < 4.10 | – | – | – | – | –
3 | C[C@@H]1O[C@@H](O[C@H]2[C@H](OC(=O)[C@]34CCC(C)(C)C[C@H]3C3=CC[C@@H]5[C@@]6(C)C[C@H](O)[C@H](O[C@@H]7O[C@H](CO)[C@@H](O)[C@H](O[C@@H]8O[C@H](CO)[C@@H](O)[C@H](O)[C@H]8O)[C@H]7O)C(CO)(CO)[C@@H]6CC[C@@]5(C)[C@]3(C)C[C@H]4O)OC[C@H](O)[C@@H]2O)[C@H](O)[C@H](O)[C@H]1O[C@@H]1OC[C@@H](O)[C@H](O[C@@H]2OC[C@](O)(CO)[C@H]2O)[C@H]1O [Platycodin D2, platycodin D2] | – | – | – | – | 12 µg/mL (≈ 8.65 µM) | 25 µg/mL (≈ 18 µM) | 1.05 µg/mL (≈ 0.757 µM) | – | < 4.14 | 5.36 | – | – | – | –
4 | CC1OC(OC2C(OC(=O)C34CCC(C)(C)CC3C3=CCC5C6(C)CC(O)C(OC7OC(COC8OC(CO)C(O)C(O)C8O)C(O)C(O)C7O)C(CO)(CO)C6CCC5(C)C3(C)CC4O)OC(CO)C2O)C(O)C(O)C1OC1OCC(O)C(OC2OCC(O)(CO)C2O)C1O (stereo not drawn) [Platycodin D3, platycodin D3] | – | – | – | – | 27 µg/mL (≈ 19.5 µM) | 100 µg/mL (≈ 72.1 µM) | 2.33 µg/mL (≈ 1.68 µM) | 5.24 | < 4.14 | – | – | – | – | –
5 | C[C@@H]1O[C@@H](O[C@H]2[C@H](OC(=O)[C@]34CCC(C)(C)C[C@H]3C3=CC[C@@H]5[C@@]6(C)C[C@H](O)[C@H](O[C@@H]7O[C@H](CO)[C@@H](O)[C@H](O)[C@H]7O)C(CO)(CO)[C@@H]6CC[C@@]5(C)[C@]3(C)C[C@H]4O)OC[C@H](O)[C@@H]2O)[C@H](O)[C@H](O)[C@H]1O[C@@H]1OC[C@@H](O)[C@H](O[C@@H]2OC[C@](O)(CO)[C@H]2O)[C@H]1O [Platycodin D, platycodin D] | – | – | – | – | 3 µg/mL (≈ 2.45 µM) | 25 µg/mL (≈ 20.4 µM) | 0.35 µg/mL (≈ 0.286 µM) | – | < 4.09 | 5.39 | – | – | – | –
6 | CC(C)(C)OC(=O)N[C@H]1CCCCC/C=C\[C@@H]2C[C@@]2(C(=O)NS(=O)(=O)C2CC2)NC(=O)[C@@H]2C[C@@H](OC(=O)N3Cc4cccc(F)c4C3)CN2C1=O [R7227, Danoprevir] | 0.72 | 0.71 | 0.70 | Synergistic | – | – | – | – | – | – | – | – | – | –
7 | IFN-α | 0.45 | 0.39 | 0.34 | Synergistic | – | – | – | – | – | – | unable to inhibit colony formation | 0.4 log10 | 0.8 log10 | 1.5 log10
